Experiments:
[1] = Transmetalation kinetics with ZnCl2, evolution of R1P(t)/R1P(0); type: physicochemical; details: 72 h; phosphate buffer pH 7.4, 2.5 mmol/L Gd complex + 2.5 mmol/L ZnCl2, room temperature, 3T
Protocol: This experiment is prepared using a previous document method (Laurent, S. Elst, L. V.; Copoix, F.; Muller, R. N. Investigative radiology 2001, 36, 115). This is based on measurements of evolution of a water proton longitudinal relaxation rate (R1P) of a buffer solution (phosphate buffer, pH 7.4) containing 2.5 mmol/L gadolinium complex and 2.5 mmol/L ZnCl2. Next, 10 μL ZnCl2 250 mmol/L solution is added to a […] paramagnetic complex buffer solution. The mixture is strongly agitated, and then, 300 μL thereof is taken for a relaxation measurement (relaxometric measurement). […] A R1P relaxation rate is acquired by excluding a diamagnetic contribution of a water proton relaxation from the measured relaxation rate R1=(1/T1). The measurement is performed at a room temperature on a 3T whole body system (Magnetom Tim Trio, Simens, Korea Institute of Radiological & Medical Science).
An evaluation of a normal paramagnetic longitudinal relaxation rate R1P (t)/R1P (0) is observed between the present series 2a-e and comparison examples Dotarem®, Primovist®, Multihance®, and Omniscan® (FIG. 4). The used complex in the test is divided into two following groups based on an evolution pattern: (i) a group employing a macrocyclic chelate (ii) a group employing an acyclic chelate. […]

[2] = Isothermal titration calorimeter (ITC), binding of Gd^3+ to ligand; details: 25° C., pH = 4.5, read-out: Kd (dissociation constant)
Protocol: In order to quantify binding isotherms of paramagnetic metal ions Gd^3+ with a ligand solution, an ITC test is executed at a VP-ITC isothermal titration microcalorimeter (Microcal, USA). Data collection, analysis and plotting are executed with help of software package Origin, version 8.0 from Microcal. A sample cell has a 1.43 mL volume. The cell is filled with a water-soluble buffer solution of the above compound 1a-e ligand (0.2 mM). A water-soluble buffer solution of Gd^3+ (1.0 mM) is input into a 300 μL continuous agitated (300 rpm) syringe and 10 μL aliquots thereof is injected into the cell. At a 3-mins interval, the cell is delivered over 20 s. Data points are collected on a 2 s basis. The measurement is executed at 25° C. All titrations are executed three times to secure data consistency and solution stability. These titration isotherms are integrated to find out an enthalpy change at each injection. In order to fit well with two mathematically different sets of site models, the titration isotherms are analyzed. Via a calorie measurement, parameters including a binding constant (Ka), a change in enthalpy (ΔH), a stoichiometry of binding (N) are calculated. Next, a free energy (ΔG) and an entropy change (ΔS) are calculated using a following complexation equation: Mn++nL↔MLn:ΔG=−RT·InKa=ΔH-TΔS,
where, R indicates a universal gas constant; T is Kelvin temperature.

Row | Compound | portion of the initial paramagnetic relaxation rate kept, R1P(t)/R1P(0) [1] [%] | Kd [2] [µM]
1 | CCOc1ccc(CC(CN(CCN(CC(=O)[O-])CC(=O)[O-])CC(=O)[O-])N(CC(=O)[O-])CC(=O)[O-])cc1.[Gd+3].[Na+].[Na+] (stereo not drawn) [Primovist, Gd-EOB-DTPA] | 50 | –
2 | CNC[C@H](O)[C@@H](O)[C@H](O)[C@H](O)CO.CNC[C@H](O)[C@@H](O)[C@H](O)[C@H](O)CO.O=C([O-])CN(CCN(CC(=O)[O-])CC(=O)O)CCN(CC(=O)O)C(COCc1ccccc1)C(=O)[O-].[Gd+3] (stereo not drawn) [Multihance, Gd-BOPTA] | 50 | –
3 | CCOC(=O)C1CCC(CNC(=O)CN2CCN(CC(=O)O)CCN(CC(=O)O)CCN(CC(=O)O)CC2)CC1 (stereo not drawn) [1a] | – | 19.3
